ChEMBL document CHEMBL1201862, “PubChem BioAssay data set” (2004)
The source made the active and inactive calls. For most assays here, no stated cut-off is given here; in the data, actives have a measured EC50 and inactives only a lower limit.

Key:
[1] = target: T1, Protein skinhead-1 (Caenorhabditis elegans, UniProt P34707); format: functional
T1 sequence (P34707 whole entry): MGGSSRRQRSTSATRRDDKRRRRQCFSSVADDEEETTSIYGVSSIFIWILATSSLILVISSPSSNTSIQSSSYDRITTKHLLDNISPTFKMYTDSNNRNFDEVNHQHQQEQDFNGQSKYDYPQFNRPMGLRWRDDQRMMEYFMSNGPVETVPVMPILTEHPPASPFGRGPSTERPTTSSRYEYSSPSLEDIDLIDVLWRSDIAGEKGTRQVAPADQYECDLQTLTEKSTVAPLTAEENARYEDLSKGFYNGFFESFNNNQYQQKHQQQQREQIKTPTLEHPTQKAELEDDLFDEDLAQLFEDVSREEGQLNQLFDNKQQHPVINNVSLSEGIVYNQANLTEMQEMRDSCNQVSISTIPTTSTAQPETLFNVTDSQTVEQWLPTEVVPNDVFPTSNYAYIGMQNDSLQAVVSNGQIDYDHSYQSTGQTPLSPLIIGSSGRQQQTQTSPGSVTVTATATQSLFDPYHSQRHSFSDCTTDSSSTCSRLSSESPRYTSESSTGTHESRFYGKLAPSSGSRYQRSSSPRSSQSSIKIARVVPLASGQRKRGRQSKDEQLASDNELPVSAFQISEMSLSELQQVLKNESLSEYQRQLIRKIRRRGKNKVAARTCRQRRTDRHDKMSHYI

[2] = Luminescence Cell-Based Dose Confirmation HTS to Identify Activators of 5'UTR Stem-Loop Driven Alpha-Synuclein mRNA Translation in H4 Neuroglioblastoma Cells. [Related pubchem assays: 1829 (Project Summary), 1814 (Primary HTS)]; format: functional
[3] = Luminescence Cell-Based Dose Response HTS to Identify Activators of Luciferase Translation or Activity in H4 […] Cells. [Related pubchem assays: 1829 (Project Summary), 1814 (Primary HTS)]; format: functional
[4] = system: H4; assay: Luminescence Cell-Based Dose Response HTS to Identify Activators of 5'UTR Stem-Loop Driven Prion Protein mRNA Translation in H4 Neuroglioblastoma Cells. [Related pubchem assays: 1829 (Project Summary), 1814 (Primary HTS)]; format: functional; conditions: Homo sapiens
[5] = Trypanosoma cruzi growth suppression in host cells – NIH3T3 host cells, beta-gal luminescence, confirmation (AID 2044); format: functional, cell-based;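 further: intracellular parasites grown in NIH/3T3 mouse fibroblasts as host cells; luminescent beta-galactosidase reporter signal from transgenic T. cruzi replicating inside host cells; inhibitors lower the luminescence signal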
[6] = NIH3T3 cell viability loss – ATP luminescence, mouse fibroblasts, counter-screen, dose response (AID 2010); format: functional, cell-based;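 further: cells exposed to compound for about 90 hours before reading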
[7] = target: Nonstructural protein 1 (Influenza A virus, UniProt Q194T2); format: functional, Influenza A virus (A/California/07/2009(H1N1))
[8] = viability of uninfected HEp-2 cells – cell-based, HTS, cytotoxicity control for RSV inhibitor project, dose response (AID 2410); format: functional; conditions: human respiratory syncytial virus
[9] = target: Peroxisome proliferator-activated receptor gamma/Nuclear receptor coactivator 1 (Homo sapiens, UniProt P37231); assay: (§1) TR-FRET dose response biochemical High Throughput Screening assay for agonists of the steroid receptor coactivator 1 (SRC-1) recruitment by the peroxisome proliferator-activated receptor gamma (PPAR gamma): non-selective agonists. [Related pubchem assays (depositor defined):AID1300, AID1808, AID504735, AID631]; format: protein assay
[10] = target: Peroxisome proliferator-activated receptor gamma/Nuclear receptor coactivator 3 (Homo sapiens, UniProt P37231); assay: as §1, with “3 (SRC-3)” for “1 (SRC-1)”, “assays: 1301 (Confirmation screen.), 1048 (Primary screen.)]” for “assays (depositor defined):AID1300, AID1808, AID504735, AID631]”; format: functional
[11] = target: Peroxisome proliferator-activated receptor gamma/Nuclear receptor coactivator 2 (Homo sapiens, UniProt P37231); assay: TR-FRET dose response biochemical High Throughput Screening assay for agonists of the steroid receptor coactivator 2 (SRC-2) recruitment by the peroxisome proliferator-activated receptor gamma (PPAR gamma): non-selective agonists. [Related pubchem assays: 1297, 1032 ]; format: functional
[12] = system: Streptococcus sp. 'group A'; assay: Streptococcus pyogenes SK(-)GAS viability under kanamycin – luminescence, BacTiterGlo, confirmation, counter-screen for streptokinase expression inhibitor project, dose response (AID 1900); format: functional, organism-based
[13] = target: T2, Streptokinase A (Streptococcus pyogenes serotype M1, UniProt P10520); assay: viability-normalized secreted streptokinase activity reduction – plasminogen activation absorbance, OD405, dose response (AID 1914); format: functional, Streptococcus pyogenes M1 GAS;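 further: secreted streptokinase activity via plasminogen activation per viability signal from cell pellet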
T2 sequence (P10520 whole entry): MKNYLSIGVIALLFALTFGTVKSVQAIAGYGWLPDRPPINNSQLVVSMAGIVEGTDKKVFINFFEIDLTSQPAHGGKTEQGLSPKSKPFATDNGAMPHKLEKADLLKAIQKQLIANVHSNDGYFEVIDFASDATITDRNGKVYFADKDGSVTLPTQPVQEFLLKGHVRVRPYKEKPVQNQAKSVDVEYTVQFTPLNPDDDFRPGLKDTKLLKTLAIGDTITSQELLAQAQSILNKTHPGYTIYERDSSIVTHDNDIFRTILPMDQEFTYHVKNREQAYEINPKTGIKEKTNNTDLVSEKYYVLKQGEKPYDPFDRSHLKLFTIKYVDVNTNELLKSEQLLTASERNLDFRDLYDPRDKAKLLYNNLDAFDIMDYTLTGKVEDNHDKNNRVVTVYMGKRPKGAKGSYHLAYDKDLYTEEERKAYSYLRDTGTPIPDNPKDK

[14] = system: Streptococcus; assay: GAS UMAA2166 growth inhibition – luminescence, BacTiterGlo, counter-screen for streptokinase expression inhibitor project, dose response (AID 1915); format: functional, organism-based;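 further: potency for reduction of bacterial viability or growth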

Question: Which IC50 [1] does the source give for `Cc1ccc2sc(NC(=O)c3cccc(N4C(=O)CCC4=O)c3)nc2c1C` here?
Answer: The IC50 was > 100 µM (inactive).

Question: Which results are given for `Cc1cccc(/C=C/C(=O)c2ccc(NC3=NCCCS3)cc2)c1`?
Answer: EC50 [2]: 23.3 µM (active); EC50 [3]: 9.88 µM (active); EC50 [4]: > 120 µM (not active); EC50 [5]: 2.23 µM (active); EC50 [6]: > 60 µM (not active); IC50 [1]: 19.9 µM (active)

Question: With `COc1ccc(N=Nc2cnc(C)nc2-c2ccccc2)cc1` as the compound, how does the IC50 [7] read?
Answer: Its IC50 is 43.8 µM (active).

Question: Which CC50 [8] does the source give for `COc1ccc(OC)c(-c2csc(NC(=O)Cc3ccccc3OC)n2)c1` here?
Answer: Its CC50 is 25.3 µM (active).

Question: What does the source list for `Cc1ccc(CNC(=O)CSc2c3c(nc4cc(Cl)ccc24)CCCC3)o1`?
Answer: EC50 [9]: > 79.4 µM (inactive); EC50 [10]: > 79.4 µM (not active); EC50 [11]: > 79.4 µM (not active)

Question: With `COc1cccc2[nH]c3c(N4CCc5ccccc5C4)ncnc3c12` as the compound, how does the CC50 [8] read?
Answer: Its CC50 is > 50 µM (active).

Question: Which EC50 [2] does the source give for `CC(C)c1ccc(NC(=O)[C@@H]2CCC(=O)N2C2OC(=O)c3ccccc32)cc1` (stereo not given in full) here?
Answer: Its EC50 is 0.143 µM (active).

Question: And the EC50 [3]?
Answer: Its EC50 is 24.5 µM (active).

Question: And the EC50 [4]?
Answer: The EC50 was 38.2 µM (active).

Question: With `FC(F)(F)c1ccc(-c2csc(-c3ccno3)n2)cc1` as the compound, how does the IC50 [1] read?
Answer: Its IC50 is 23.1 µM (active).

Question: What does the source list for `CCOC(=O)c1sc(-c2ccc(OC)cc2)cc1NC(C)=O`?
Answer: EC50 [9]: > 79.4 µM (inactive); EC50 [10]: > 79.4 µM (not active); EC50 [11]: 22 µM (not active)

Question: For `Cc1ccc2[nH]c(SCC(=O)c3ccc(O)cc3O)nc2c1`, which EC50 [2] is on record?
Answer: Its EC50 is 9.48 µM (active).

Question: What about the EC50 [3] of the same compound?
Answer: The EC50 was 16.5 µM (active).

Question: And the EC50 [4]?
Answer: Its EC50 is 52.9 µM (active).

Question: Which results are given for `O=C(Nc1ccc2c(c1)nc1n2CCN(Cc2ccccc2)C1)c1cccs1`?
Answer: EC50 [2]: 17.2 µM (active); EC50 [3]: 13.6 µM (active); EC50 [4]: > 120 µM (not active)

Question: What does the source list for `COc1ccccc1C(=O)Nc1nnc(CCc2ccccc2)s1`?
Answer: EC50 [2]: > 120 µM (not active); EC50 [3]: 8.71 µM (active); EC50 [4]: > 120 µM (not active)

Question: Which EC50 [9] does the source give for `CN1CCN(C(=O)CSc2cc(=O)n(C)c3ccccc23)CC1` here?
Answer: The EC50 was > 79.4 µM (inactive).

Question: And the EC50 [10]?
Answer: Its EC50 is > 79.4 µM (not active).

Question: What about the EC50 [11] of the same compound?
Answer: The EC50 was > 79.4 µM (not active).

Question: Which CC50 [8] does the source give for `COc1ccc(-c2csc(NCCc3nc4cc(Cl)c(Cl)cc4n3CCCO)n2)cc1` here?
Answer: The CC50 was 19.6 µM (active).

Question: For `C#Cc1ccc2c(c1)COc1c3ccccc3nn1-2`, which IC50 [1] is on record?
Answer: Its IC50 is > 100 µM (inactive).

Question: For `CCOC(=O)c1sc(NC(=O)CN2CC(C)OC(C)C2)nc1C` (stereo not given), which IC50 [1] is on record?
Answer: Its IC50 is > 100 µM (inactive).

Question: With `CN(C)c1cccc(O)c1` as the compound, how does the IC50 [1] read?
Answer: The IC50 was > 100 µM (inactive).

Question: For `CCCOc1ccc(/C=N/Nc2ccccc2[N+](=O)[O-])c(OCCC)c1`, which IC50 [7] is on record?
Answer: Its IC50 is 7.73 µM (active).

Question: With `Cc1ccc(-c2nn(-c3ccccc3)cc2/C=N/NC(=O)CSc2nnc(C)n2-c2ccccc2)cc1` as the compound, how does the EC50 [2] read?
Answer: The EC50 was 13.4 µM (active).

Question: What about the EC50 [3] of the same compound?
Answer: Its EC50 is 63.4 µM (active).

Question: What about the EC50 [12] of the same compound?
Answer: Its EC50 is 7.47 µM (active).

Question: And the EC50 [4]?
Answer: The EC50 was 16.6 µM (active).

Question: What about the EC50 [13] of the same compound?
Answer: Its EC50 is 65.8 µM (active).

Question: What about the EC50 [14] of the same compound?
Answer: Its EC50 is 33.5 µM (active).

Question: With `C/C(=N\OC(=O)c1ccc(F)cc1)c1sc(-c2ccccc2)nc1C` as the compound, how does the CC50 [8] read?
Answer: The CC50 was > 50 µM (active).

Question: With `O=C(O)CN(CC(=O)O)CC(=O)O` [NITRILOTRIACETIC ACID] as the compound, how does the IC50 [7] read?
Answer: The IC50 was 17.7 µM (active).
